System: phosphorylation of Serine 473 in Akt
Assay: In Vitro Phospho-Ser473 Akt Assay in MDA-MB-468 cells
Format: cell-based
Settings: Homo sapiens, MDA-MB-468, read-out: IC50 values against mTOR, phospho-Ser473 Akt assay, MDA-MB-468 cells

Question: For `COc1ccc(-c2ccc3c(N4CCOC[C@@H]4C)nc(N4CCOC[C@@H]4C)nc3n2)cc1CNC1CCCCCCC1` [Example 4bf], which IC50 is on record?
Answer: < 100 nM

Question: With `C[C@H]1COCCN1c1nc(N2CCOC[C@@H]2C)c2ccc(-c3ccc(CN4CC[C@@H](O)C4)cc3)nc2n1` [Example 4c] as the molecule, how does the IC50 read?
Answer: < 100 nM

Question: `C[C@H]1COCCN1c1nc(N2CCOC[C@@H]2C)c2ccc(-c3ccc(CN4CC[C@H](O)C4)cc3)nc2n1` [Example 4d] was tested. Which IC50 did it give?
Answer: < 100 nM

Question: How did the IC50 turn out when `C[C@H]1COCCN1c1nc(N2CCOC[C@@H]2C)c2ccc(-c3ccc(CNC4CCOCC4)cc3)nc2n1` [Example 4e] was run?
Answer: < 100 nM

Question: Which IC50 does the source give for `CCOCc1cccc(-c2ccc3c(N4CCOC[C@@H]4C)nc(N4CCOC[C@@H]4C)nc3n2)c1` [Example 4g] here?
Answer: < 300 nM

Question: Which IC50 does the source give for `C[C@H]1COCCN1c1nc(N2CCOC[C@@H]2C)c2ccc(-c3cccc(CNCCO)c3)nc2n1` [Example 4h] here?
Answer: < 100 nM

Question: How did the IC50 turn out when `C[C@H]1COCCN1c1nc(N2CCOC[C@@H]2C)c2ccc(-c3cccc(CN)c3)nc2n1` [Example 4i] was run?
Answer: < 100 nM

Question: `C[C@H]1COCCN1c1nc(N2CCOC[C@@H]2C)c2ccc(-c3cccc(CNC4CC4)c3)nc2n1` [Example 4j] was tested. Which IC50 did it give?
Answer: < 100 nM

Question: How did the IC50 turn out when `CC(C)NCc1cccc(-c2ccc3c(N4CCOC[C@@H]4C)nc(N4CCOC[C@@H]4C)nc3n2)c1` [Example 4k] was run?
Answer: < 100 nM

Question: For `CNCc1cccc(-c2ccc3c(N4CCOC[C@@H]4C)nc(N4CCOC[C@@H]4C)nc3n2)c1` [Example 4l], which IC50 is on record?
Answer: < 100 nM

Question: With `C[C@H]1COCCN1c1nc(N2CCOC[C@@H]2C)c2ccc(-c3cccc(CNC4CCOCC4)c3)nc2n1` [Example 4m] as the molecule, how does the IC50 read?
Answer: < 100 nM

Question: For `C[C@H]1COCCN1c1nc(N2CCOC[C@@H]2C)c2ccc(-c3cccc(CNCC4CC4)c3)nc2n1` [Example 4n], which IC50 is on record?
Answer: < 100 nM

Question: With `COCCNCc1cccc(-c2ccc3c(N4CCOC[C@@H]4C)nc(N4CCOC[C@@H]4C)nc3n2)c1` [Example 4o] as the molecule, how does the IC50 read?
Answer: < 100 nM

Question: `C[C@H]1COCCN1c1nc(N2CCOC[C@@H]2C)c2ccc(-c3cccc(CNc4cc[nH]n4)c3)nc2n1` [Example 4p] was tested. Which IC50 did it give?
Answer: < 300 nM

Question: How did the IC50 turn out when `C[C@H]1COCCN1c1nc(N2CCOC[C@@H]2C)c2ccc(-c3cccc(Cn4ccnc4)c3)nc2n1` [Example 4q] was run?
Answer: < 300 nM

Question: `C[C@H]1COCCN1c1nc(N2CCOC[C@@H]2C)c2ccc(-c3cccc(CN4CC[C@@H](O)C4)c3)nc2n1` [Example 4r] was tested. Which IC50 did it give?
Answer: < 100 nM

Question: How did the IC50 turn out when `C[C@H]1COCCN1c1nc(N2CCOC[C@@H]2C)c2ccc(-c3cccc(CN4CC[C@H](O)C4)c3)nc2n1` [Example 4s] was run?
Answer: < 100 nM

Question: With `C[C@H]1COCCN1c1nc(N2CCOC[C@@H]2C)c2ccc(-c3ccc(F)c(CN)c3)nc2n1` [Example 4u] as the molecule, how does the IC50 read?
Answer: < 100 nM

Question: `CC(C)NCc1cc(-c2ccc3c(N4CCOC[C@@H]4C)nc(N4CCOC[C@@H]4C)nc3n2)ccc1F` [Example 4w] was tested. Which IC50 did it give?
Answer: < 100 nM

Question: Which IC50 does the source give for `CNCc1cc(-c2ccc3c(N4CCOC[C@@H]4C)nc(N4CCOC[C@@H]4C)nc3n2)ccc1F` [Example 4x] here?
Answer: < 100 nM

Question: With `C[C@H]1COCCN1c1nc(N2CCOC[C@@H]2C)c2ccc(-c3ccc(F)c(CNC4CCOCC4)c3)nc2n1` [Example 4y] as the molecule, how does the IC50 read?
Answer: < 100 nM

Question: `C[C@H]1COCCN1c1nc(N2CCOC[C@@H]2C)c2ccc(-c3ccc(F)c(CNCC4CC4)c3)nc2n1` [Example 4z] was tested. Which IC50 did it give?
Answer: < 100 nM

Question: Which IC50 does the source give for `CC(=O)NCc1cccc(-c2ccc3c(N4CCOC[C@@H]4C)nc(N4CCOC[C@@H]4C)nc3n2)c1` [Example 5a] here?
Answer: < 100 nM

Question: For `COCC(=O)NCc1cccc(-c2ccc3c(N4CCOC[C@@H]4C)nc(N4CCOC[C@@H]4C)nc3n2)c1` [Example 5b], which IC50 is on record?
Answer: < 300 nM

Question: Which IC50 does the source give for `C[C@H]1COCCN1c1nc(N2CCOC[C@@H]2C)c2ccc(-c3cccc(CNC(=O)C4CC4)c3)nc2n1` [Example 5c] here?
Answer: < 300 nM

Question: Which IC50 does the source give for `C[C@H]1COCCN1c1nc(N2CCOC[C@@H]2C)c2ccc(-c3cccc(CNC(=O)C4CCC4)c3)nc2n1` [Example 5e] here?
Answer: < 300 nM

Question: For `C[C@H]1COCCN1c1nc(N2CCOC[C@@H]2C)c2ccc(-c3cccc(CNC(=O)C(F)(F)F)c3)nc2n1` [Example 5g], which IC50 is on record?
Answer: < 300 nM

Question: For `C[C@H]1COCCN1c1nc(N2CCOC[C@@H]2C)c2ccc(-c3cccc(CN(C)C(=O)C(F)(F)F)c3)nc2n1` [Example 5n], which IC50 is on record?
Answer: < 300 nM

Question: How did the IC50 turn out when `CC(=O)NCc1ccc(-c2ccc3c(N4CCOC[C@@H]4C)nc(N4CCOC[C@@H]4C)nc3n2)cc1` [Example 5q] was run?
Answer: < 100 nM

Question: With `COCC(=O)N(C)Cc1ccc(-c2ccc3c(N4CCOC[C@@H]4C)nc(N4CCOC[C@@H]4C)nc3n2)cc1` [Example 5s] as the molecule, how does the IC50 read?
Answer: < 300 nM

Question: `C[C@H]1COCCN1c1nc(N2CCOC[C@@H]2C)c2ccc(-c3ccc(F)c(CNC(=O)C4CC4)c3)nc2n1` [Example 5v] was tested. Which IC50 did it give?
Answer: < 300 nM

Question: `C[C@H]1COCCN1c1nc(N2CCOC[C@@H]2C)c2ccc(-c3ccoc3CO)nc2n1` [Example 6a] was tested. Which IC50 did it give?
Answer: < 300 nM

Question: With `CNCc1ccc(-c2ccc3c(N4CCOC[C@@H]4C)nc(N4CCOC[C@@H]4C)nc3n2)o1` [Example 7c] as the molecule, how does the IC50 read?
Answer: < 100 nM

Question: With `CCNCc1ccc(-c2ccc3c(N4CCOC[C@@H]4C)nc(N4CCOC[C@@H]4C)nc3n2)o1` [Example 7d] as the molecule, how does the IC50 read?
Answer: < 100 nM

Question: For `C[C@H]1COCCN1c1nc(N2CCOC[C@@H]2C)c2ccc(-c3ccc(CNC4CCOCC4)o3)nc2n1` [Example 7f], which IC50 is on record?
Answer: < 100 nM

Question: With `C[C@H]1COCCN1c1nc(N2CCOC[C@@H]2C)c2ccc(-c3ccc(CNCC4CC4)o3)nc2n1` [Example 7g] as the molecule, how does the IC50 read?
Answer: < 100 nM

Question: How did the IC50 turn out when `CC(C)NCc1ccc(-c2ccc3c(N4CCOC[C@@H]4C)nc(N4CCOC[C@@H]4C)nc3n2)o1` [Example 7k] was run?
Answer: < 100 nM

Same assay, conditions: Homo sapiens, MDA-MB-468, read-out: IC50 values against mTOR, phospho-Ser473 Akt assay, MDA-MB-468 cells, upper bound

Question: `C[C@H]1COCCN1c1nc(N2CCOC[C@@H]2C)c2ccc(-c3cccc(CS(C)(=O)=O)c3)nc2n1` [Example 4t] was tested. Which IC50 did it give?
Answer: < 1000 nM

Question: With `C[C@H]1COCCN1c1nc(N2CCOC[C@@H]2C)c2ccc(-c3ccc(F)c(CNC4CC4)c3)nc2n1` [Example 4v] as the molecule, how does the IC50 read?
Answer: < 1000 nM

Question: `CC(C)C(=O)NCc1cccc(-c2ccc3c(N4CCOC[C@@H]4C)nc(N4CCOC[C@@H]4C)nc3n2)c1` [Example 5d] was tested. Which IC50 did it give?
Answer: < 1000 nM

Question: With `CC(C)CC(=O)NCc1cccc(-c2ccc3c(N4CCOC[C@@H]4C)nc(N4CCOC[C@@H]4C)nc3n2)c1` [Example 5f] as the molecule, how does the IC50 read?
Answer: < 1000 nM

Question: How did the IC50 turn out when `CC(=O)N(C)Cc1ccc(-c2ccc3c(N4CCOC[C@@H]4C)nc(N4CCOC[C@@H]4C)nc3n2)cc1` [Example 5r] was run?
Answer: < 1000 nM

Question: Which IC50 does the source give for `CC(=O)NCc1cc(-c2ccc3c(N4CCOC[C@@H]4C)nc(N4CCOC[C@@H]4C)nc3n2)ccc1F` [Example 5t] here?
Answer: < 1000 nM

Question: `COCC(=O)NCc1cc(-c2ccc3c(N4CCOC[C@@H]4C)nc(N4CCOC[C@@H]4C)nc3n2)ccc1F` [Example 5u] was tested. Which IC50 did it give?
Answer: < 1000 nM

Question: With `CC(C)C(=O)NCc1cc(-c2ccc3c(N4CCOC[C@@H]4C)nc(N4CCOC[C@@H]4C)nc3n2)ccc1F` [Example 5w] as the molecule, how does the IC50 read?
Answer: < 1000 nM

Question: Which IC50 does the source give for `C[C@H]1COCCN1c1nc(N2CCOC[C@@H]2C)c2ccc(-c3ccc(F)c(CNC(=O)C4CCC4)c3)nc2n1` [Example 5x] here?
Answer: < 1000 nM

Question: `CC(C)CC(=O)NCc1cc(-c2ccc3c(N4CCOC[C@@H]4C)nc(N4CCOC[C@@H]4C)nc3n2)ccc1F` [Example 5y] was tested. Which IC50 did it give?
Answer: < 1000 nM

Question: For `C[C@H]1COCCN1c1nc(N2CCOC[C@@H]2C)c2ccc(-c3ccc(F)c(CNC(=O)C(F)(F)F)c3)nc2n1` [Example 5z], which IC50 is on record?
Answer: < 1000 nM

Question: With `C[C@H]1COCCN1c1nc(N2CCOC[C@@H]2C)c2ccc(-c3ccc(CNC4CC4)o3)nc2n1` [Example 7e] as the molecule, how does the IC50 read?
Answer: < 1000 nM

Question: Which IC50 does the source give for `C[C@H]1COCCN1c1nc(N2CCOC[C@@H]2C)c2ccc(-c3ccc(CNc4cc[nH]n4)o3)nc2n1` [Example 7i] here?
Answer: < 1000 nM

Question: With `C[C@H]1COCCN1c1nc(N2CCOC[C@@H]2C)c2ccc(-c3ccc(CNCC(N)=O)o3)nc2n1` [Example 7j] as the molecule, how does the IC50 read?
Answer: < 1000 nM
